Assay results taken from patent publication US8648081B2 (Eli Lilly and Company, priority 2011, dated 2014).

System: Lone star tick larvae (Amblyomma americanum)
Experiment: In Vitro Larval Immersion Microassay (LIM)
Conditions: read-out: % Efficacy (percent larval mortality)
Procedure: In Vitro Larval Immersion Microassay (LIM)
The larval immersion microassay may be conducted as described in White, et al., J. Med. Entomol. […] Briefly, experimental test articles are formulated in dimethylsulfoxide (DMSO) to prepare a stock solution at a concentration of 10 mM. […] Approximately 30-50 Lone star tick larvae (Amblyomma americanum) are submerged into each well containing experimental test articles. After a 30 minute immersion period, larvae are removed with a wide-bore pipette tip in 0.05 ml of fluid, dispensed into a commercial paper tissue biopsy bag which is sealed at the top with a plastic dialysis clip, inverted and allowed to air dry for 60 minutes. Bags containing larvae are then incubated at approximately 27 degrees Celsius and >90% relative humidity. After 24 hours, bags are opened, live and dead larvae are counted and percent larval mortality is calculated as follows: % Efficacy=(# dead larvae)/(# total larvae)×100.

Structure (SMILES) | mortality at 300 µM
O=C(N[C@@H]1CCNC1=O)c1sc(C2=NOC(c3cc(Cl)c(Cl)c(Cl)c3)(C(F)(F)F)C2)c2c1CCCC2 (stereo partly drawn) [Example 45, N-((R)-2-oxopyrrolidin-3-yl)-3-(5-(3,4,5-trichlorophenyl)-5-(trifluoromethyl)-4,5-dihydroisoxazol-3-yl)-4,5,6,7-tetrahydrobenzo [c]thiophene-1-carboxamide] | ≥ 80%
N#CCNC(=O)CNC(=O)c1sc(C2=NOC(c3cc(Cl)c(Cl)c(Cl)c3)(C(F)(F)F)C2)c2c1CCCC2 (centres unmarked) [Example 46, N-(2-(cyanomethyl-amino)-2-oxoethyl)-3-(5-(3,4,5-trichloro-phenyl)-5-(trifluoro-methyl)-4,5-dihydro-isoxazol-3-yl)-4,5,6,7-tetrahydrobenzo [c]thiophene-1-carboxamide] | ≥ 80%
C#CCNC(=O)CNC(=O)c1sc(C2=NOC(c3cc(Cl)c(Cl)c(Cl)c3)(C(F)(F)F)C2)c2c1CCCC2 (centres unmarked) [Example 47, N-(2-oxo-2-(prop-2-ynylamino)ethyl)-3-(5-(3,4,5-trichlorophenyl)-5-(trifluoromethyl)-4,5-dihydroisoxazol-3-yl)-4,5,6,7-tetrahydro-benzo[c]thiophene-1-carboxamide] | ≥ 80%
O=C(CNC(=O)c1sc(C2=NOC(c3cc(Cl)c(F)c(Cl)c3)(C(F)(F)F)C2)c2c1CCCC2)NCC(F)(F)F (centres unmarked) [Example 48, 3-(5-(3,5-dichloro-4-fluorophenyl)-5-(trifluoromethyl)-4,5-dihydroisoxazol-3-yl)-N-(2-oxo-2-(2,2,2-trifluoroethyl-amino)ethyl)-4,5,6,7-tetrahydrobenzo [c]thiophene-1-carboxamide] | ≥ 80%
O=C(N[C@@H]1CCNC1=O)c1sc(C2=NOC(c3cc(Cl)c(F)c(Cl)c3)(C(F)(F)F)C2)c2c1CCCC2 (stereo partly drawn) [Example 49, 3-(5-(3,5-dichloro-4-fluorophenyl)-5-(trifluoromethyl)-4,5-dihydroisoxazol-3-yl)-N-((R)-2-oxopyrrolidin-3-yl)-4,5,6,7-tetrahydro-benzo[c]thiophene-1-carboxamide] | ≥ 80%
N#CCNC(=O)CNC(=O)c1sc(C2=NOC(c3cc(Cl)c(F)c(Cl)c3)(C(F)(F)F)C2)c2c1CCCC2 (centres unmarked) [Example 50, N-(2-(cyanomethyl-amino)-2-oxoethyl)-3-(5-(3,5-dichloro-4-fluorophenyl)-5-(trifluoromethyl)-4,5-dihydroisoxazol-3-yl)-4,5,6,7-tetrahydrobenzo [c]thiophene-1-carboxamide] | ≥ 80%
C#CCNC(=O)CNC(=O)c1sc(C2=NOC(c3cc(Cl)c(F)c(Cl)c3)(C(F)(F)F)C2)c2c1CCCC2 (centres unmarked) [Example 51, 3-(5-(3,5-dichloro-4-fluorophenyl)-5-(trifluoromethyl)-4,5-dihydroisoxazol-3-yl)-N-(2-oxo-2-(prop-2-ynylamino)ethyl)-4,5,6,7-tetrahydro-benzo[c]thiophene-1-carboxamide] | ≥ 80%
O=C(CNC(=O)c1sc(C2=NOC(c3cc(Cl)c(Cl)c(Cl)c3)(C(F)(F)F)C2)c2c1CCC2)NCC(F)(F)F (centres unmarked) [Example 52, N-(2-oxo-2-(2,2,2-trifluoroethylamino)ethyl)-3-(5-(3,4,5-trichlorophenyl)-5-(trifluoromethyl)-4,5-dihydroisoxazol-3-yl)-5,6-dihydro-4H-cyclopenta[c] thiophene-1-carboxamide] | ≥ 80%
O=C(N[C@@H]1CCNC1=O)c1sc(C2=NOC(c3cc(Cl)c(Cl)c(Cl)c3)(C(F)(F)F)C2)c2c1CCC2 (stereo partly drawn) [Example 53, N-((R)-2-oxopyrrolidin-3-yl)-3-(5-(3,4,5-trichlorophenyl)-5-(trifluoromethyl)-4,5-dihydroisoxazol-3-yl)-5,6-dihydro-4H-cyclopenta[c] thiophene-1-carboxamide] | ≥ 80%
N#CCNC(=O)CNC(=O)c1sc(C2=NOC(c3cc(Cl)c(Cl)c(Cl)c3)(C(F)(F)F)C2)c2c1CCC2 (centres unmarked) [Example 54, N-(2-(cyanomethyl-amino)-2-oxoethyl)-3-(5-(3,4,5-trichloro-phenyl)-5-(trifluoro-methyl)-4,5-dihydro-isoxazol-3-yl)-5,6-dihydro-4H-cyclo-penta[c]thiophene-1-carboxamide] | ≥ 80%
C#CCNC(=O)CNC(=O)c1sc(C2=NOC(c3cc(Cl)c(Cl)c(Cl)c3)(C(F)(F)F)C2)c2c1CCC2 (stereo not drawn) [Example 55, N-(2-oxo-2-(prop-2-ynylamino)ethyl)-3-(5-(3,4,5-trichlorophenyl)-5-(trifluoromethyl)-4,5-dihydroisoxazol-3-yl)-5,6-dihydro-4H-cyclo-penta[c]thiophene-l-carboxamide] | ≥ 80%
O=C(NC1CCN(CC(F)(F)F)C1=O)c1sc(C2=NOC(c3cc(Cl)c(Cl)c(Cl)c3)(C(F)(F)F)C2)c2c1CCC2 (centres unmarked) [Example 56, N-(2-oxo-1-(2,2,2-trifluoroethyl)pyrrolidin-3-yl)-3-(5-(3,4,5-trichlorophenyl)-5-(trifluoromethyl)-4,5-dihydroisoxazol-3-yl)-5,6-dihydro-4H-cyclopenta[c] thiophene-1-carboxamide] | ≥ 80%
O=C(CNC(=O)c1sc(C2=NOC(c3cc(Cl)c(F)c(Cl)c3)(C(F)(F)F)C2)c2c1CCC2)NCC(F)(F)F (centres unmarked) [Example 57, 3-(5-(3,5-dichloro-4-fluorophenyl)-5-(trifluoromethyl)-4,5-dihydroisoxazol-3-yl)-N-(2-oxo-2-(2,2,2-trifluoroethylamino)ethyl)-5,6-dihydro-4H-cyclopenta[c] thiophene-1-carboxamide] | ≥ 80%
O=C(N[C@@H]1CCNC1=O)c1sc(C2=NOC(c3cc(Cl)c(F)c(Cl)c3)(C(F)(F)F)C2)c2c1CCC2 (stereo partly drawn) [Example 58, 3-(5-(3,5-dichloro-4-fluorophenyl)-5-(trifluoromethyl)-4,5-dihydroisoxazol-3-yl)-N-((R)-2-oxopyrrolidin-3-yl)-5,6-dihydro-4H-cyclopenta[c] thiophene-1-carboxamide] | ≥ 80%
N#CCNC(=O)CNC(=O)c1sc(C2=NOC(c3cc(Cl)c(F)c(Cl)c3)(C(F)(F)F)C2)c2c1CCC2 (centres unmarked) [Example 59, N-(2-(cyanomethyl-amino)-2-oxoethyl)-3-(5-(3,5-dichloro-4-fluorophenyl)-5-(trifluoromethyl)-4,5-dihydroisoxazol-3-yl)-5,6-dihydro-4H-cyclopenta[c] thiophene-1-carboxamide] | ≥ 80%
O=C(NC1CCN(CC(F)(F)F)C1=O)c1sc(C2=NOC(c3cc(Cl)c(F)c(Cl)c3)(C(F)(F)F)C2)c2c1CCC2 (centres unmarked) [Example 60, 3-(5-(3,5-dichloro-4-fluorophenyl)-5-(trifluoromethyl)-4,5-dihydroisoxazol-3-yl)-N-(2-oxo-1-(2,2,2-trifluoroethyl)pyrrolidin-3-yl)-5,6-dihydro-4H-cyclopenta[c] thiophene-1-carboxamide] | ≥ 80%
C#CCNC(=O)CNC(=O)c1sc(C2=NOC(c3cc(Cl)c(F)c(Cl)c3)(C(F)(F)F)C2)c2c1CCC2 (centres unmarked) [Example 61, 3-(5-(3,5-dichloro-4-fluorophenyl)-5-(trifluoromethyl)-4,5-dihydroisoxazol-3-yl)-N-(2-oxo-2-(prop-2-ynylamino)ethyl)-5,6-dihydro-4H-cyclopenta[c] thiophene-1-carboxamide] | ≥ 80%
O=C(CNC(=O)c1sc(C2=NOC(c3cc(Cl)cc(Cl)c3)(C(F)(F)F)C2)c2c1CCCC2)NCC(F)(F)F (centres unmarked) [Example 62, 3-(5-(3,5-dichloro-phenyl)-5-(trifluoro-methyl)-4,5-dihydro-isoxazol-3-yl)-N-(2-oxo-2-(2,2,2-trifluoroethylamino)ethyl)-4,5,6,7-tetrahydrobenzo[c] thiophene-1-carboxamide] | ≥ 80%
CCNC(=O)CNC(=O)c1sc(C2=NOC(c3cc(Cl)cc(Cl)c3)(C(F)(F)F)C2)c2c1CCCC2 (centres unmarked) [Example 63, 3-(5-(3,5-dichloro-phenyl)-5-(trifluoro-methyl)-4,5-dihydro-isoxazol-3-yl)-N-(2-(ethylamino)-2-oxoethyl)-4,5,6,7-tetrahydrobenzo [c]thiophene-1-carboxamide] | ≥ 80%
O=C(NCC1CCCO1)c1sc(C2=NOC(c3cc(Cl)cc(Cl)c3)(C(F)(F)F)C2)c2c1CCCC2 (centres unmarked) [Example 64, 3-(5-(3,5-dichloro-phenyl)-5-(trifluoro-methyl)-4,5-dihydro-isoxazol-3-yl)-N-((tetrahydrofuran-2-yl)methyl)-4,5,6,7-tetrahydro-benzo[c]thiophene-1-carboxamide] | ≥ 80%
CSCCNC(=O)c1sc(C2=NOC(c3cc(Cl)cc(Cl)c3)(C(F)(F)F)C2)c2c1CCCC2 (centres unmarked) [Example 65, 3-(5-(3,5-dichloro-phenyl)-5-(trifluoro-methyl)-4,5-dihydro-isoxazol-3-yl)-N-(2-(methylthio)ethyl)-4,5,6,7-tetra-hydrobenzo[c] thiophene-1-carboxamide] | ≥ 80%
O=C(NCCC(F)(F)F)c1sc(C2=NOC(c3cc(Cl)cc(Cl)c3)(C(F)(F)F)C2)c2c1CCCC2 (centres unmarked) [Example 66, 3-(5-(3,5-dichloro-phenyl)-5-(trifluoro-methyl)-4,5-dihydro-isoxazol-3-yl)-N-(3,3,3-trifluoropropyl)-4,5,6,7-tetrahydrobenzo[c] thiophene-1-carboxamide] | ≥ 80%
O=C(NC1CCCC(O)C1)c1sc(C2=NOC(c3cc(Cl)cc(Cl)c3)(C(F)(F)F)C2)c2c1CCCC2 (centres unmarked) [Example 67, 3-(5-(3,5-dichloro-phenyl)-5-(trifluoro-methyl)-4,5-dihydro-isoxazol-3-yl)-N-(3-hydroxycyclohexyl)-4,5,6,7-tetrahydrobenzo [c]thiophene-1-carboxamide] | ≥ 80%
